Reference: patent publication US6924302B2, “Substituted triazole diamine derivatives as kinase inhibitors” (Ortho McNeil Pharmaceutical, Inc., priority 2000, dated 2005)
pIC50: −log10 of the molar value. Like-named read-outs stand apart in the source and are kept apart here.

Tests used:
[1] = biological target: T1, HER2 (human epidermal growth factor receptor-2) (Homo sapiens, UniProt P04626); experiment: Kinase Selectivity Assay HER2; format: biochemical
T1 construct: begins at amino acid 676 followed by the remainder of the HER2 cytoplasmic domain; polyhistidine (N)
T1 sequence (P04626 676-1255 limits assumed): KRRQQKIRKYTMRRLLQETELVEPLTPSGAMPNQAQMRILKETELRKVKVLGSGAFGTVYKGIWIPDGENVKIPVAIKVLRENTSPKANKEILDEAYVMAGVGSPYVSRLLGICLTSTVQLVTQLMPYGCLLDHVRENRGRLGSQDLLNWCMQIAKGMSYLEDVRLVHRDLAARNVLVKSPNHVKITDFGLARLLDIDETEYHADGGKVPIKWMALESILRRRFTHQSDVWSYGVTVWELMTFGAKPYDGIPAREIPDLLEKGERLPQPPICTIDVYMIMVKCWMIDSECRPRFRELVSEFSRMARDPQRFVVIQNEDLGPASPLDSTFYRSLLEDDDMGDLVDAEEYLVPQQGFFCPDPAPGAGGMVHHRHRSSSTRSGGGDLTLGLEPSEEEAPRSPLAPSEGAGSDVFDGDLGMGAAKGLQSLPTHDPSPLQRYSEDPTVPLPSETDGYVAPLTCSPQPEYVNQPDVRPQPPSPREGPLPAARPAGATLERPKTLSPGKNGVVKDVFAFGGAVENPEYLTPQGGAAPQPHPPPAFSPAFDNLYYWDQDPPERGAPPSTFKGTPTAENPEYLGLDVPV
Description: (§1) Assays to test compound inhibition of other kinases were preformed using methods that measure the amount of phosphorylation of a biotinylated peptide substrate. Biotinylated peptide substrates were selected from the literature as appropriate for the enzyme being evaluated. […] Assay conditions vary slightly for each protein kinase, for example, insulin receptor kinase requires 10 mM MnCl2 for activity and Calmodulin-dependent protein kinase requires calmodulin and 10 mM CaCl2. These assay conditions are known in the art. The reaction mixture was dispensed into the wells of a streptavidin coated Flashplate and 1 μl drug stock in 100% DMSO was added to a 100 μl reaction volume resulting in a final concentration of 1% DMSO on the reaction. Enzyme was diluted in 50 mM Tris-HCl pH=8.0, 0.1% BSA and add to each well. The reaction was incubated for one hour at 30° C. in the presence of compound. After one hour the reaction mix was aspirated from the plate and the plate was washed with PBS containing 100 mM EDTA. The plate was read on a scintillation counter to determine ^33P-γ-ATP incorporated into the immobilized peptide. Test compounds were assayed in duplicate at 8 concentrations [100 uM, 10 uM, 1 uM, 100 nM, 10 nM, 1 nM, 100 pM, 10 pM]. A maximum and minimum signal for the assay was determined on each plate. The IC50 was calculated from the dose response curve of the percent inhibition of the maximum signal in the assay according to the formula [max signal—background/test compound signal—background (100)=% inhibition] by graphing the percent inhibition against the log concentration of test compound. Known inhibitor compounds appropriate for the kinase being assayed were also included on each plate.
(§2) CDK2 in complex with cyclin A is commercially available (Upstate Biotech, Lake Placid, N.Y.). The CDK4 complex was composed of a mouse CDK4 protein and a mouse Cyclin D1 protein (The mouse CDK4 protein was genetically fused to an N-terminal Flag-epitope tag and the mouse Cyclin D1 protein was fused with an N-terminal AU-1 epitope tag. The genes encoding these proteins were transferred to commercially available baculoviral vectors. The recombinant CDK4/D1 complex was then made by co-infecting commercially available insect cells with viruses carrying these two constructs). […] ERK-1 protein (Discontinued from Calbiochem). EGFR (epidermal growth factor receptor) is purified from human A431 cell membranes (Sigma, St. Louis, Mo., Cat.# E3641).

[2] = biological target: T2, VEGF-R (vascular endothelial growth factor receptor-2) (Rattus norvegicus, UniProt O08775); experiment: VEGF-R Screening Assay; format: biochemical
T2 construct: polyhistidine (6xHIS) (N)
T2 sequence (O08775 786-1343): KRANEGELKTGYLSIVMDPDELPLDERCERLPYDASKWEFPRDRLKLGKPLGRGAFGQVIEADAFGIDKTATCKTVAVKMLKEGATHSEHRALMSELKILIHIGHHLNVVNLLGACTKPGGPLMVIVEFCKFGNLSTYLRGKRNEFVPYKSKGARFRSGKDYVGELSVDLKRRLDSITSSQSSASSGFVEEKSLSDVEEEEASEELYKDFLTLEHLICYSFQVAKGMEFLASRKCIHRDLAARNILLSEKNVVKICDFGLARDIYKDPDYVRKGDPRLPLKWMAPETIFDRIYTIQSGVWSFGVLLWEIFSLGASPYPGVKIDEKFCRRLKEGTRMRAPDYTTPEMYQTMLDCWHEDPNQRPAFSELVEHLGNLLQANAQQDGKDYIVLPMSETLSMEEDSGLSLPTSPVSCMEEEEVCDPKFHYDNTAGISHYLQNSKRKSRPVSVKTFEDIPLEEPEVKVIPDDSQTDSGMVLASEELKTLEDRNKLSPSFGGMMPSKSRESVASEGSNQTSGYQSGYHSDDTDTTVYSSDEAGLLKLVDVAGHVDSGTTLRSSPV

[3] = biological target: T3, CDK2 in complex with cyclin A (Homo sapiens, UniProt P24941); experiment: Kinase Selectivity Assay CDK2; format: biochemical; settings: Table 1
T3 construct: purchased Upstate Biotech
Description: as §1, §2

CDK1:Cyclin-B = biological target: T4, CDK1:Cyclin-B (Homo sapiens, UniProt P06493); experiment: CDK1 Screening Assay; format: biochemical
T4 construct: purchased New England Biolabs 6020; host or cells: insect cells
T4 sequence (P06493 whole entry): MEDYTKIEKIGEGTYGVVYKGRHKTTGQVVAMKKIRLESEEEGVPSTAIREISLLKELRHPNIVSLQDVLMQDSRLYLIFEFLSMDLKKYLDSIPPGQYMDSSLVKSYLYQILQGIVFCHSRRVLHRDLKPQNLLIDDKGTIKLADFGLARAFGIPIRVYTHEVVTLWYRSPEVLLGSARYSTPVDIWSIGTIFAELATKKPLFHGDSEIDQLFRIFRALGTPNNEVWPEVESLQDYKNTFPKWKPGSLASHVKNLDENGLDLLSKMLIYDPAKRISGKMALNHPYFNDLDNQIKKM
T4 sequence (P14635 whole entry partner): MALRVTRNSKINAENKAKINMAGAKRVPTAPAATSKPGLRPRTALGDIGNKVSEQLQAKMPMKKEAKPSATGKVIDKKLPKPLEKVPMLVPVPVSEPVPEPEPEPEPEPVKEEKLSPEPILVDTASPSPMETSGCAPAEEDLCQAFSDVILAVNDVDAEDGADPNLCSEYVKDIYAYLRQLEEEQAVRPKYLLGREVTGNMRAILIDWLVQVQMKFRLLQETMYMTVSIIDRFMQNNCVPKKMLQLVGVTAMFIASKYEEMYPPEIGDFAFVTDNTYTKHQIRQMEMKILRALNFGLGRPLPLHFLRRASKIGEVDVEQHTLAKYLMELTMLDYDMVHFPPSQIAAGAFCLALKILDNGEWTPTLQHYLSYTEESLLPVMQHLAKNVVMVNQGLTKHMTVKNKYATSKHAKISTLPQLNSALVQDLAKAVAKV
Procedure, shortened: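 Human CDK1:cyclin-B (30 ng/well) with biotinylated histone-H1 peptide and ^33P-γ-ATP, 1 h at 30° C, 1% DMSO, on streptavidin FlashPlate; incorporation read by scintillation.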

[4] = biological target: T5, PDGF-R (platelet derived growth factor receptor) beta subunit kinase domain (Homo sapiens, UniProt P09619); experiment: Kinase Selectivity Assay PDGF-R; format: biochemical
T5 construct: nucleotides 1874-3507 of the human PDGF-R beta subunit kinase domain; polyhistidine (N)
T5 sequence (P09619 564-1106): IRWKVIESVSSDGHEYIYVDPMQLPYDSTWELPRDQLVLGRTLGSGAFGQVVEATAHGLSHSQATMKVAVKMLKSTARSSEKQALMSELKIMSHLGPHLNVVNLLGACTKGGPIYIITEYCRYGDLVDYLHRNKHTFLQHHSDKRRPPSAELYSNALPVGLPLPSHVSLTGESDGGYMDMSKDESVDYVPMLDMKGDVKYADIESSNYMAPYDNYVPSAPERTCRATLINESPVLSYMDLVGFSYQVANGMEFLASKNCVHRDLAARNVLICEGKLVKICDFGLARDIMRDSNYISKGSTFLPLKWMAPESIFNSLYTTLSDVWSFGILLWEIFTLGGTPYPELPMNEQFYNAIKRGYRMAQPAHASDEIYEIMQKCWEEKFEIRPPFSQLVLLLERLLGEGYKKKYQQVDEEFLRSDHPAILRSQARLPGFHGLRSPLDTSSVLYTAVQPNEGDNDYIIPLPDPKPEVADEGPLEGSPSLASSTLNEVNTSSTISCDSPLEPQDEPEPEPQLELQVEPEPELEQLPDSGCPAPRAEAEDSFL
Description: as §1, §2

[5] = biological target: T6, Glycogen Synthase Kinase-3 (beta isoform) (Oryctolagus cuniculus, UniProt G1T8E2); experiment: Kinase Selectivity Assay Glycogen Synthase Kinase-3; format: biochemical, rabbit
T6 construct: purchased New England Biolabs 6040; host or cells: E. coli
T6 sequence (G1T8E2 1-432): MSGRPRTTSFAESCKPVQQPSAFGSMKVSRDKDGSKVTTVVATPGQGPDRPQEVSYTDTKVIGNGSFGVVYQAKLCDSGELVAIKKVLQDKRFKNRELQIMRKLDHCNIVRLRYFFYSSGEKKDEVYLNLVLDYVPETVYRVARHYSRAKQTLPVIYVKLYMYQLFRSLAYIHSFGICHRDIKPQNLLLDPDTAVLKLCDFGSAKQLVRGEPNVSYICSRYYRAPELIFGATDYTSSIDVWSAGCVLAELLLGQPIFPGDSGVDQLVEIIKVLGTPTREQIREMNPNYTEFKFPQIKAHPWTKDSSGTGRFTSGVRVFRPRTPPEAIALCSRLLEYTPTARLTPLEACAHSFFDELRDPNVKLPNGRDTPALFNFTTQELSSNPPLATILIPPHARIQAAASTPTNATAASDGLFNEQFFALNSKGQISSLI
Description: as §1, §2

[6] = biological target: T7, MAP Kinase (ERK-2 isoform) (Rattus norvegicus, UniProt P63086); experiment: Kinase Selectivity Assay MAP Kinase (ERK-2); format: biochemical
T7 construct: polyhistidine (N); host or cells: E. coli
T7 sequence (P63086 whole entry, canonical isoform): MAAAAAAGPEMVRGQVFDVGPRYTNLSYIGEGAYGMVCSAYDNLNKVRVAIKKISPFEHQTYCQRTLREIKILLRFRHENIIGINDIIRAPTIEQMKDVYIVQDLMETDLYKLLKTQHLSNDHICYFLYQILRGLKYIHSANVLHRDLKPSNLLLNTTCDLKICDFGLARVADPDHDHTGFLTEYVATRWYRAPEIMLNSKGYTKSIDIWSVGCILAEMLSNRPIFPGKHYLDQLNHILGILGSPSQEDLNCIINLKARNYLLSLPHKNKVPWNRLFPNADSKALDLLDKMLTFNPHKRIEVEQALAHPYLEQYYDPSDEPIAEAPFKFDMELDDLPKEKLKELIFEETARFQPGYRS
Description: as §1, §2

[7] = biological target: T8, Casein Kinase 2 (alpha and beta subunits) (Homo sapiens, UniProt P68400); experiment: Kinase Selectivity Assay Casein Kinase 2; format: biochemical
T8 construct: purchased New England Biolabs 6010; host or cells: E. coli
T8 sequence (P68400 whole entry): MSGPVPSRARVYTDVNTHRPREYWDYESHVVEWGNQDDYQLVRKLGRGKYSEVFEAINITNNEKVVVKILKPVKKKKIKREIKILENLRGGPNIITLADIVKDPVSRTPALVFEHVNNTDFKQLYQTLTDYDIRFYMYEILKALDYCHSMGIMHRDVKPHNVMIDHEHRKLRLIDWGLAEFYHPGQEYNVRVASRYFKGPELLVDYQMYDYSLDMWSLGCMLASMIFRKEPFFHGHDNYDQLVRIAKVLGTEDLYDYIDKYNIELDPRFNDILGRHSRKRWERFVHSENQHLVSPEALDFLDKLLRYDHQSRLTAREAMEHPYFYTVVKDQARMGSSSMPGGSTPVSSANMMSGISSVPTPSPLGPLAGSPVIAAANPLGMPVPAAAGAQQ
T8 sequence (P67870 whole entry partner): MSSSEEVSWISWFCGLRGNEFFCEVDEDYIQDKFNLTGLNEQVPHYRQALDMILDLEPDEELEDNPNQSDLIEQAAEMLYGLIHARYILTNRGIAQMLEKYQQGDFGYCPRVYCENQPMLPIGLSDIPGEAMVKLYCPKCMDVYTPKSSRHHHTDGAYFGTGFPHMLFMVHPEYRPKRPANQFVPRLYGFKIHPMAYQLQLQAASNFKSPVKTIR
Description: as §1, §2

Protein Kinase A = biological target: T9, Protein Kinase A (Bos taurus, UniProt P00517); experiment: Kinase Selectivity Assay Protein Kinase A; format: biochemical, bovine
T9 construct: purified from bovine heart; purchased Upstate Biotech 14-114; host or cells: bovine heart
Description: as §1, §2

Insulin Receptor Kinase = Insulin Receptor Kinase (Homo sapiens, UniProt P06213); experiment: Kinase Selectivity Assay Insulin Receptor Kinase; format: biochemical
Chain of Insulin Receptor Kinase (P06213 980-1352): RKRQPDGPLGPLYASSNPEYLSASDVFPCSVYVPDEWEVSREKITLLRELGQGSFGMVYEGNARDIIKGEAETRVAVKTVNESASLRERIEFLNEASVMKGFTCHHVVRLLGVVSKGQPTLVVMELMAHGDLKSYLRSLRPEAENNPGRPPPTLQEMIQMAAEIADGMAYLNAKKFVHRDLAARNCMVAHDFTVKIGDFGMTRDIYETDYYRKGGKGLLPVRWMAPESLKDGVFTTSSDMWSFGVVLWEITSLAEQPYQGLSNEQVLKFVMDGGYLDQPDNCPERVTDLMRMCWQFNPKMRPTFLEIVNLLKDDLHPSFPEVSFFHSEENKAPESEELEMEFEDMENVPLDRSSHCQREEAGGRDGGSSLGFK
Description: as §1, §2

[8] = biological target: T10, Calmodulin Kinase (calmodulin-dependent protein kinase 2) (Rattus norvegicus, UniProt P11275); experiment: Kinase Selectivity Assay Calmodulin Kinase; format: biochemical
T10 construct: a truncated version of the alpha subunit of the rat protein; purchased New England Biolabs 6060; host or cells: insect cells
Description: as §1, §2

[9] = Kinase Selectivity, Tables 2a-2k, read-out: VEGF-R IC50
[10] = Kinase Selectivity, Tables 2a-2k, read-out: CDK1 IC50
[11] = Kinase Selectivity, Tables 2a-2k, read-out: GSK-3 IC50
[12] = Kinase Selectivity, Tables 2a-2k, read-out: HER2 Kinase IC50
[13] = Kinase Selectivity, Tables 2a-2k, read-out: PDGF-R kinase IC50
[14] = Kinase Selectivity, Tables 2a-2k, read-out: Caseine Kinase 2 IC50

Row | pIC50 ([1]; Table 1, read-out: HER2 IC50) | pIC50 ([2]; Table 1, read-out: VEGF-R IC50) | pIC50 (CDK1:Cyclin-B; Table 1, read-out: CDK1 IC50) | Structure (SMILES) | further results
1 |  |  | 8.32 | Cc1ccsc1C(=O)n1nc(Nc2ccc(S(N)(=O)=O)cc2)nc1N [Cpd 15, 4-[[5-amino-1-[(3-methyl-2-thienyl)carbonyl]-1H-1,2,4-triazol-3-yl]amino]-benzenesulfonamide] | pIC50 [4, 13]: 7.10; pIC50 [5, 11]: 8.74; pIC50 [7, 14]: < 4.00; pIC50 (CDK1:Cyclin-B; [10]): 8.32
2 | 6.04 | 6.59 | 6.86 | Cc1ccc(F)c(C(=O)n2nc(Nc3ccc(-n4cncn4)cc3)nc2N)c1F [Cpd 95, 1-(2,6-difluoro-3-methylbenzoyl)-N^3-[4-(1H-1,2,4-triazol-1-yl)phenyl]-1H-1,2,4-triazole-3,5-diamine] | 
3 | 5.85 | 6.09 | 6.43 | Nc1nc(Nc2ccc(-n3cncn3)cc2)nn1C(=O)c1c(F)cccc1F [Cpd 96, 1-(2,6-difluorobenzoyl)-N^3-[4-(1H-1,2,4-triazol-1-yl)phenyl]-1H-1,2,4-triazole-3,5-diamine] | 
4 | 6.83 | 6.39 | 6.57 | Cc1ccc(F)c(C(=O)n2nc(Nc3ccc(-n4ccnc4)cc3)nc2N)c1F [Cpd 94, 1-(2,6-difluoro-3-methylbenzoyl)-N^3-[4-(1H-imidazol-1-yl)phenyl]-1H-1,2,4-triazole-3,5-diamine] | 
5 | ~6.00 | 6.14 | 6.34 | Nc1nc(Nc2ccc(-n3ccnc3)cc2)nn1C(=O)c1c(F)cccc1F [Cpd 93, 1-(2,6-difluorobenzoyl)-N^3-[4-(1H-imidazol-1-yl)phenyl]-1H-1,2,4-triazole-3,5-diamine] | 
6 | 4.79 | 6.15 | 7.06 | Cc1ccc(F)c(C(=O)n2nc(Nc3ccc(NS(C)(=O)=O)cc3)nc2N)c1F [Cpd 112] | 

More lines, now with the values behind:

Row | Structure (SMILES) | pIC50 ([1]; Table 1, read-out: HER2 IC50) | pIC50 ([2]; Table 1, read-out: VEGF-R IC50) | pIC50 (CDK1:Cyclin-B; Table 1, read-out: CDK1 IC50) | further results
7 | CCNS(=O)(=O)c1ccc(Nc2nc(N)n(C(=O)c3c(F)cccc3F)n2)cc1 [Cpd 76, 4-[[5-amino-1-(2,6-difluorobenzoyl)-1H-1,2,4-triazol-3-yl]amino]-N-ethyl-benzenesulfonamide] | ~6.00 | 6.28 | 7.92 | pIC50 [3]: 8.36
8 | Nc1nc(Nc2ccc(S(N)(=O)=O)cc2)nn1C(=O)Nc1c(F)cccc1F [Cpd 67, 5-amino-3-[[4-(aminosulfonyl)phenyl]amino]-N-(2,6-difluorophenyl)-1H-1,2,4-triazole-1-carboxamide] | 7.28 | 7.42 | 8.43 | pIC50 [3]: 8.85
9 | CN(C)CCNS(=O)(=O)c1ccc(Nc2nc(N)n(C(=O)c3c(F)cccc3F)n2)cc1 [Cpd 106] | 4.43 | 6.25 | 6.90 | pIC50 [3]: 9.00
10 | Cc1ccc(F)c(C(=O)n2nc(Nc3ccc(S(N)(=O)=O)cc3)nc2N)c1F [Cpd 2, 4-[[5-amino-1-(2,6-difluoro-3-methylbenzoyl)-1H-1,2,4-triazol-3-yl]amino]-benzenesulfonamide] |  | 6.44 | 8.49 | pIC50 [4]: 4.97; pIC50 [5]: 7.51; pIC50 [2, 9]: 6.44; pIC50 [6]: 5.02; pIC50 (CDK1:Cyclin-B; [10]): 8.52
11 | Nc1nc(Nc2cccc(Cl)c2)n(C(=O)c2ccccc2)n1 [Cpd 127, 1-benzoyl-N^5-(3-chlorophenyl)-1H-1,2,4-triazole-3,5-diamine] |  |  |  | pIC50 [5, 11]: < 4.00; pIC50 [1, 12]: < 4.00; pIC50 [2, 9]: < 4.00; pIC50 (CDK1:Cyclin-B; [10]): < 4.00
12 | Nc1nc(Nc2cccc(Cl)c2)n(C(=O)c2c(F)cccc2F)n1 [Cpd 126, N^5-(3-chlorophenyl)-1-(2,6-difluorobenzoyl)-1H-1,2,4-triazole-3,5-diamine] |  |  |  | pIC50 [5, 11]: < 4.00; pIC50 [1, 12]: ~4.00; pIC50 [2, 9]: < 4.00; pIC50 (CDK1:Cyclin-B; [10]): < 4.00
13 | Cc1ccsc1C(=O)n1nc(Nc2ccc(S(=O)(=O)N(C)C)cc2)nc1N [Cpd 87, 4-[[5-amino-1-[(3-methyl-2-thienyl)carbonyl]-1H-1,2,4-triazol-3-yl]amino]-N,N-dimethyl-benzenesulfonamide] | 6.36 | 7.77 | 6.66 | 
14 | Cc1ccsc1C(=O)n1nc(Nc2ccc(-n3ccnc3)cc2)nc1N [Cpd 91, N^3-[4-(1H-imidazol-1-yl)phenyl]-1-[(3-methyl-2-thienyl)carbonyl]-1H-1,2,4-triazole-3,5-diamine] | 6.65 | 7.13 | 6.48 | 
15 | Nc1nc(Nc2ccc(S(N)(=O)=O)cc2)nn1C(=O)c1c(F)ccc(Cl)c1F [Cpd 78, 4-[[5-amino-1-(3-chloro-2,6-difluorobenzoyl)-1H-1,2,4-triazol-3-yl]amino]-benzenesulfonamide] | 6.11 | 6.38 | 8.18 | pIC50 [3]: 8.77
16 | Cc1cc(C)c(C(=O)n2nc(Nc3ccc(S(N)(=O)=O)cc3)nc2N)s1 [Cpd 33, 4-[[5-amino-1-[(3,5-dimethyl-2-thienyl)carbonyl]-1H-1,2,4-triazol-3-yl]amino]-benzenesulfonamide] |  |  |  | pIC50 [4]: 7.41; pIC50 [5]: 8.40; pIC50 [1]: 8.30; pIC50 (Protein Kinase A): < 4.00; pIC50 (Insulin Receptor Kinase): 6.50; pIC50 [2]: 7.63; pIC50 [2, 9]: 7.64; pIC50 [8]: < 5.00; pIC50 [6]: < 5.00; pIC50 [7]: < 5.00; pIC50 (CDK1:Cyclin-B; CDK1 IC50, Kinase Selectivity, Tables 2a-2k): 8.52; pIC50 (CDK1:Cyclin-B; CDK1 IC50, Table 1): 8.49
17 | Nc1nc(Nc2ccc(S(N)(=O)=O)cc2)nn1C(=S)Nc1c(F)cccc1F [Cpd 66, 5-amino-3-[[4-(aminosulfonyl)phenyl]amino]-N-(2,6-difluorophenyl)-1H-1,2,4-triazole-1-carbothioamide] | 7.22 |  | 9.22 | pIC50 [4, 13]: 5.80; pIC50 [1, 12]: 7.22; pIC50 [7, 14]: < 4.00; pIC50 (CDK1:Cyclin-B; [10]): 9.22
18 | CNc1nc(N)n(C(=O)c2sccc2C)n1 [Cpd 79, N^3-methyl-1-[(3-methyl-2-thienyl)carbonyl]-1H-1,2,4-triazole-3,5-diamine] | < 4.00 | < 4.00 | < 4.00 | pIC50 [3]: < 4.00
19 | Nc1nc(Nc2ccc(S(=O)(=O)O)cc2)nn1C(=O)c1c(F)cccc1F [Cpd 59, 4-[[5-amino-1-(2,6-difluorobenzoyl)-1H-1,2,4-triazol-3-yl]amino]-benzenesulfonic Acid] | 5.11 | 6.04 | 5.81 | 
20 | Cc1ccsc1C(=O)n1nc(Nc2ccc(-n3cnnc3)cc2)nc1N [Cpd 102, 1-[(3-methyl-2-thienyl)carbonyl]-N^3-[4-(4H-1,2,4-triazol-4-yl)phenyl]-1H-1,2,4-triazole-3,5-diamine] | 5.65 | 5.96 | 5.63 | 
21 | Cc1cc(C)c(C(=O)n2nc(Nc3ccc(-n4cncn4)cc3)nc2N)s1 [Cpd 98, 1-[(3,5-dimethyl-2-thienyl)carbonyl]-N^3-[4-(1H-1,2,4-triazol-1-yl)phenyl]-1H-1,2,4-triazole-3,5-diamine] | ~7.00 | ~7.00 | < 7.00 | 
